{"source": "patent US20050239189A1", "about": "“Oxidant-scavenging compound for anaerobic treatment” (priority 2004, published 2005)", "origin": "cited, not measured here", "system": "CVOC dehalogenation", "details": "eight case studies reported by Regenesis, Inc. (2000)", "data": [{"compound": "CC(O)C(=O)O", "note": "(stereo not shown) [Lactic Acid]", "values": [{"measurement": "stimulation of CVOC dehalogenation", "value": "stimulated CVOC dehalogenation"}]}]}
